What was measured:
Format in all cases: toxicity, cell-based
Fibroblast = experiment: Incucyte cell viability with human fibroblast; conditions: 10 µM, compound concentration 10 uM
HEK-293T = experiment: Incucyte cell viability with HEK293T; conditions: human, 10 µM, compound concentration 10 uM
U2OS = experiment: Incucyte cell viability with U2OS; conditions: human, 10 µM, compound concentration 10 uM
Note: unitless GR value; below 1 slowed growth and below 0 cell loss.

| SMILES | Growth Rate (Fibroblast; 0 h, replicate number 1) | Growth Rate (Fibroblast; 6 h, replicate number 2) | Growth Rate (Fibroblast; 12 h, replicate number 1) | Growth Rate (Fibroblast; 12 h, replicate number 2) | Growth Rate (Fibroblast; 18 h, replicate number 1) | Growth Rate (Fibroblast; 18 h, replicate number 2) | Growth Rate (Fibroblast; 24 h, replicate number 1) | Growth Rate (Fibroblast; 24 h, replicate number 2) | Growth Rate (HEK-293T; 6 h, replicate number 2) | Growth Rate (HEK-293T; 12 h, replicate number 1) | Growth Rate (HEK-293T; 12 h, replicate number 2) | Growth Rate (HEK-293T; 18 h, replicate number 1) | Growth Rate (HEK-293T; 18 h, replicate number 2) | Growth Rate (HEK-293T; 24 h, replicate number 1) | Growth Rate (HEK-293T; 24 h, replicate number 2) | Growth Rate (U2OS; 12 h, replicate number 1) | Growth Rate (U2OS; 18 h, replicate number 1) | Growth Rate (U2OS; 12 h, replicate number 2) | Growth Rate (U2OS; 18 h, replicate number 2) | Growth Rate (U2OS; 24 h, replicate number 1) | other results |
| --- | --- | --- | --- | --- | --- | --- | --- | --- | --- | --- | --- | --- | --- | --- | --- | --- | --- | --- | --- | --- | --- |
| CCCCc1oc2ccccc2c1C(=O)c1cc(I)c(OCCN(CC)CC)c(I)c1.Cl [AMIODARONE HYDROCHLORIDE] | 0.24 | -0.16 | 0.4 | -0.27 | -0.02 | -0.44 | -0.01 | -0.43 | -0.04 | 0.36 | -0.11 | 0.5 | 0.1 | 0.45 | 0.24 | 0.98 | 0.77 | – | – | – | Growth Rate (HEK-293T; 0 h, replicate number 2): -0.99; Growth Rate (HEK-293T; 6 h, replicate number 1): 0.31; Growth Rate (U2OS; 0 h, replicate number 1): 0.24; Growth Rate (U2OS; 6 h, replicate number 1): 0.43 |
| O=C(Nc1cccc(Nc2nccc(Nc3cccc(C(F)(F)F)c3)n2)c1)C1CC1 [ANILINOPYRIMIDINE1] | -1 | -1 | -0.84 | -0.73 | -0.68 | – | -0.48 | -0.55 | -0.97 | -0.71 | -0.79 | -0.46 | -0.54 | -0.29 | -0.38 | -0.21 | -0.21 | -0.42 | -0.3 | -0.08 | Growth Rate (Fibroblast; 6 h, replicate number 1): -0.79; Growth Rate (HEK-293T; 6 h, replicate number 1): -0.91; Growth Rate (U2OS; 0 h, replicate number 1): -0.01; Growth Rate (U2OS; 0 h, replicate number 2): 0.91; Growth Rate (U2OS; 6 h, replicate number 1): -0.16; Growth Rate (U2OS; 6 h, replicate number 2): -0.36; Growth Rate (U2OS; 24 h, replicate number 2): -0.1 |
| Cc1nnc2n1-c1sc(CCC(=O)N3CCOCC3)cc1C(c1ccccc1Cl)=NC2 [APAFANT] | – | – | – | – | 0.73 | – | 0.8 | – | – | 0.78 | – | – | – | – | – | 0.67 | 0.88 | 0.76 | – | 0.88 | Growth Rate (Fibroblast; 0 h, replicate number 2): -0.81; Growth Rate (HEK-293T; 0 h, replicate number 2): -0.56; Growth Rate (U2OS; 0 h, replicate number 1): 0.87; Growth Rate (U2OS; 6 h, replicate number 1): 0.58; Growth Rate (U2OS; 6 h, replicate number 2): 0.99; Growth Rate (U2OS; 24 h, replicate number 2): 0.98 |
| CC(C)[C@H](C(=O)Nc1ccc(C(=O)NO)cc1)c1ccccc1 [AR-42] | 0.71 | 0.66 | -1 | 0.61 | -0.41 | 0.42 | 0.78 | 0.61 | – | – | – | – | 0.59 | 0.89 | 0.37 | 0.83 | 0.46 | 0.96 | 0.44 | 0 | Growth Rate (Fibroblast; 0 h, replicate number 2): 0.62; Growth Rate (HEK-293T; 0 h, replicate number 1): -0.15; Growth Rate (HEK-293T; 0 h, replicate number 2): 0.49; Growth Rate (U2OS; 6 h, replicate number 2): 0.73; Growth Rate (U2OS; 24 h, replicate number 2): 0.11 |
| O=C(Nc1ccc(OC(F)(F)Cl)cc1)c1cnc(N2CC[C@@H](O)C2)c(-c2ccn[nH]2)c1 [ASCIMINIB] | -1 | -0.75 | 0.06 | 0.12 | 0.17 | 0.46 | 0.35 | 0.63 | -0.37 | -0.32 | -0.17 | -0.06 | 0.07 | 0.02 | 0.19 | – | – | 0.61 | 0.82 | 0.95 | Growth Rate (Fibroblast; 0 h, replicate number 2): 0.89; Growth Rate (Fibroblast; 6 h, replicate number 1): 0.15; Growth Rate (HEK-293T; 6 h, replicate number 1): -0.71; Growth Rate (U2OS; 0 h, replicate number 2): 0.44 |
| CCN1CCN(Cc2ccc(NC(=O)Nc3ccc(Oc4cc(NC)ncn4)cc3)cc2C(F)(F)F)CC1 [AST-487] | 0.93 | – | – | – | – | 0.81 | – | 0.4 | -0.54 | – | -0.4 | – | -0.29 | – | -0.21 | – | 0.36 | 0.86 | 0.41 | 0.19 | Growth Rate (Fibroblast; 6 h, replicate number 1): -1; Growth Rate (HEK-293T; 0 h, replicate number 1): -0.91; Growth Rate (U2OS; 0 h, replicate number 2): -0.84; Growth Rate (U2OS; 24 h, replicate number 2): 0.08 |
| C[C@@H]1CN(CC(=O)N2CC(C)(C)c3nc(CO)c(Cc4ccc(F)cc4)cc32)[C@@H](CN2CCOC[C@H]2C)CN1 [ASTX-660] | – | – | – | – | – | – | – | – | – | – | – | 0.97 | – | 0.89 | – | – | – | – | – | 0.98 | Growth Rate (Fibroblast; 0 h, replicate number 2): 0.14; Growth Rate (HEK-293T; 0 h, replicate number 1): 0.18 |

From ChEMBL document CHEMBL5303304, “EUbOPEN Chemogenomics Library - IncuCyte” (2023)
